Data as given in US20250000852A1, “NITROXOLINE FOR USE IN THE TREATMENT OR PREVENTION OF A PLEXIFORM NEUROFIBROMA” (HEALX LTD, priority 2021, published 2025).

Assays:
[1] = test system: NF1−/− (ipNF95.6) immortalized human-derived Schwann cells; test: Caspase-Glo 3/7 apoptosis assay, NF1 deficient Schwann cells; assay type: cell-based
Text: (§1) In this study the efficacy of nitroxoline was investigated and its ability to reduce cellular proliferation, increase apoptosis, and overall cell viability utilizing immortalized wild-type (WT) and NF1 deficient (Nf1^−/−) Schwann cells (SCs). Nf1^−/− SCs have increased survival and proliferation in vitro, consistent with the in vivo phenotypes (Kim H A et al., Mol Cell Biol. 1997; 17 (2): 862-72). The present studies utilize WT (ipn02.3λ) and NF1^−/− (ipNF95.6) immortalized human-derived SC lines. The selectivity of nitroxoline was compared between NF1^−/− and WT cells.
(§2) Cells were treated with serially diluted nitroxoline starting from […] and incubated for 48 hours. After the incubation period, proliferation, viability, and apoptosis assays were performed as described below: • Cell proliferation was assessed using the CellTiter-Glo Assay (Promega) which measures ATP consumption. […] After 10 minutes, the plates were read using a 96-well microplate luminometer. • Cellular apoptosis was assessed using the Caspase-Glo 3/7 kit (Promega). […] After 10 minutes, plates were read using a 96 well luminometer and caspase 3/7 activity was measured.

[2] = test system: Postn-Cre+ Nf1fl/fl mouse model of plexiform neurofibroma; test: In vivo drug testing in Nf1-KO mice (plexiform neurofibroma model); conditions: oral gavage, 12 weeks
Text: The aim of this study was to evaluate the effect of nitroxoline in a mouse model of neurofibromatosis type 1, more specifically a model that develops plexiform neurofibromas. This study is the same used by AstraZeneca for the approval of selumetinib for pNF.
This study uses the Postn-Cre+Nf1^fl/fl mouse model of plexiform neurofibroma. The neurofibromas that arise in these mice faithfully recapitulate human disease (Burks et al. 2019). At 4 months of age when mice (male and female) had established plexiform neurofibromas they were randomised into three treatment groups and administered nitroxoline at 120 mg/kg QD, 120 mg/kg BD or vehicle (10% DMSO in 90% corn oil) via oral gavage. Mice were treated for 12 weeks then sacrificed. Mice were perfused and fixed in 10% neutral buffered formalin.
The whole bodies were decalcified in 5% formic acid, the spinal proximal nerve tree was dissected, and nerve width (including the tumour formed along it) measured via calliper (shown in FIG. 3) across four nerves per mouse. Nerve volume was subsequently calculated using a spheroid calculation: 0.52×(width) 2 w length.
To quantify tumour number, the nerves were processed to paraffin blocks, sectioned, and stained for collagen using Masson's trichrome stain. Tumour number was scored from these slides by a clinician.
Graphs and statistical analysis of data were produced using GraphPad Prism (Ver 9).

[3] = test system: WT (ipn02.3λ) immortalized human-derived Schwann cells; test: Caspase-Glo 3/7 apoptosis assay, WT Schwann cells; assay type: cell-based; conditions: 48 hours incubation, caspase 3/7 activity
Text: as §1, §2

[4] = test system: WT (ipn02.3λ) immortalized human-derived Schwann cells; test: CellTiter-Glo cell proliferation assay, WT Schwann cells; assay type: cell-based; conditions: 48 hours incubation
Text: as §1, §2

[5] = test system: NF1−/− (ipNF95.6) immortalized human-derived Schwann cells; test: CellTiter-Glo cell proliferation assay, NF1 deficient Schwann cells; assay type: cell-based; conditions: 48 hours incubation
Text: as §1, §2

O=[N+]([O-])c1ccc(O)c2ncccc12 [Nitroxoline, 5-nitroquinolin-8-ol]
concentration at which induction of apoptosis was evident ([1]; Nf1−/− Schwann cells, 48 hours incubation, caspase 3/7 activity): greater than 3 UM
magnitude of the increase in apoptosis in Nf1−/− SC compared with WT SC ([1]; at concentrations greater than 10 μM, 48 hours): significantly greater
proximal nerve volume compared to vehicle treated control mice ([2]; 120 mg/kg BD): lower proximal nerve volumes
proximal nerve volume compared to vehicle treated control mice ([2]; 120 mg/kg QD): lower proximal nerve volumes
tumour number along the nerves compared to vehicle controls ([2]; nitroxoline treated mice (120 mg/kg QD or BD)): a reduction in tumour number
concentration at which induction of apoptosis was evident [3]: greater than 3 UM
concentration at which antiproliferative effect was observed [4]: greater than 1 μM
concentration at which antiproliferative effect was observed [5]: greater than 1 μM
